# Assay results from the supplement of paper PMC10307832.
# Experiments:
# Assay in all cases: relative viability (nuclei count vs DMSO), 5 days (fraction); higher = more cells survive
# KN-93 + Foretinib = compound: CN(C/C=C/C1=CC=C(C=C1)Cl)CC2=CC=CC=C2N(CCO)S(=O)(=O)C3=CC=C(C=C3)OC [KN-93] + COc1cc2c(Oc3ccc(NC(=O)C4(C(=O)Nc5ccc(F)cc5)CC4)cc3F)ccnc2cc1OCCCN1CCOCC1 [Foretinib] (partner 0.25 µM)
# How it was run: (§1)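 Relative viability is defined as nuclei in treated wells over nuclei in vehicle wells. Duplicate plates were run and medians reported. Lung cancer cell lines in 1536-well plates were dosed by pin tool one day after seeding, with one drug or with a fixed anchor-drug dose plus five library-drug doses (not always all listed) in √10 steps, and nuclei were counted after 5 days.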
# KN-93 + Tozasertib = compound: CN(C/C=C/C1=CC=C(C=C1)Cl)CC2=CC=CC=C2N(CCO)S(=O)(=O)C3=CC=C(C=C3)OC [KN-93] + Cc1cc(Nc2cc(N3CCN(C)CC3)nc(Sc3ccc(NC(=O)C4CC4)cc3)n2)n[nH]1 [Tozasertib] (partner 0.1 µM)
# How it was run: as §1
# KN-93 + Pemetrexed = compound: CN(C/C=C/C1=CC=C(C=C1)Cl)CC2=CC=CC=C2N(CCO)S(=O)(=O)C3=CC=C(C=C3)OC [KN-93] + Nc1nc2[nH]cc(CCc3ccc(C(=O)N[C@@H](CCC(=O)O)C(=O)O)cc3)c2c(=O)[nH]1 [Pemetrexed] (partner 0.2 µM)
# How it was run: as §1
# KN-93 + Navitoclax = compound: CN(C/C=C/C1=CC=C(C=C1)Cl)CC2=CC=CC=C2N(CCO)S(=O)(=O)C3=CC=C(C=C3)OC [KN-93] + CC1(C)CCC(c2ccc(Cl)cc2)=C(CN2CCN(c3ccc(C(=O)NS(=O)(=O)c4ccc(N[C@H](CCN5CCOCC5)CSc5ccccc5)c(S(=O)(=O)C(F)(F)F)c4)cc3)CC2)C1 [Navitoclax] (partner 0.5 µM)
# How it was run: as §1
# KN-93 + OSI-027 = compound: CN(C/C=C/C1=CC=C(C=C1)Cl)CC2=CC=CC=C2N(CCO)S(=O)(=O)C3=CC=C(C=C3)OC [KN-93] + COc1cccc2cc(-c3nc([C@H]4CC[C@H](C(=O)O)CC4)n4ncnc(N)c34)[nH]c12 [OSI-027] (partner 0.5 µM)
# How it was run: as §1
Cell Line,relative viability (KN-93 + Foretinib; first compound 0.08 µM),relative viability (KN-93 + Foretinib; first compound 0.253 µM),relative viability (KN-93 + Foretinib; first compound 2.53 µM),relative viability (KN-93 + Foretinib; first compound 8 µM),relative viability (KN-93 + Tozasertib; first compound 0.08 µM),relative viability (KN-93 + Tozasertib; first compound 0.253 µM),relative viability (KN-93 + Tozasertib; first compound 2.53 µM),relative viability (KN-93 + Tozasertib; first compound 8 µM),relative viability (KN-93 + Pemetrexed; first compound 0.08 µM),relative viability (KN-93 + Pemetrexed; first compound 0.253 µM),relative viability (KN-93 + Pemetrexed; first compound 2.53 µM),relative viability (KN-93 + Pemetrexed; first compound 8 µM),relative viability (KN-93 + Navitoclax; first compound 0.08 µM),relative viability (KN-93 + Navitoclax; first compound 0.253 µM),relative viability (KN-93 + Navitoclax; first compound 2.53 µM),relative viability (KN-93 + Navitoclax; first compound 8 µM),relative viability (KN-93 + OSI-027; first compound 0.08 µM),relative viability (KN-93 + OSI-027; first compound 0.253 µM),relative viability (KN-93 + OSI-027; first compound 2.53 µM),relative viability (KN-93 + OSI-027; first compound 8 µM)
NCI-H2009,1.2,1.37,1.29,0.914,0.689,0.764,0.692,0.493,1.01,1.07,1.1,0.796,1.16,1.21,1.23,0.869,0.608,0.629,0.535,0.248
NCI-H2023,0.935,–,0.981,0.627,0.363,0.337,0.483,0.178,0.244,0.247,0.325,0.14,1,1.22,1.05,0.789,0.361,0.359,0.345,0.211
NCI-H2085,1,0.994,1.05,0.664,0.667,0.662,0.873,0.369,0.933,0.905,0.883,0.739,1.04,1.21,1.23,0.867,0.733,0.639,0.806,0.597
NCI-H2087,0.983,1.31,1.21,0.697,0.248,0.238,0.267,0.152,0.694,0.672,0.564,0.607,0.931,0.948,0.982,0.527,0.481,0.566,0.586,0.491
NCI-H2126,1.14,0.899,1.23,1.11,0.858,0.805,0.862,0.554,0.541,0.64,0.69,0.654,0.814,0.785,0.929,0.809,0.691,0.557,0.638,0.674
NCI-H2170,0.973,1.23,0.903,0.892,0.755,0.845,0.729,0.454,0.268,0.302,0.276,0.252,0.537,0.606,0.542,0.563,0.713,0.712,0.728,0.567
NCI-H2228,0.872,0.891,0.862,0.506,0.274,0.166,0.243,0.154,0.407,0.383,0.353,0.252,1.31,0.788,0.914,0.674,0.55,0.443,0.567,0.237
NCI-H2347,1.12,0.656,1.25,0.593,0.587,0.55,0.618,0.505,0.376,0.473,0.45,0.549,0.696,0.843,0.794,0.543,0.379,0.318,0.371,0.339
